Experimental data as given in US20080085885A1, “Inhibition Of Voluntary Ethanol Consumption With Non-Peptidyl Melanocortin-4 Receptor Agonists” (priority 2004, published 2008).
Entries after “also recorded” stand apart in the source; their conditions may differ.

What was measured:
Male Wistar rats [1] = test: Maintenance operant ethanol self-administration (animal model of alcohol reward); assay type: in vivo, rat
Procedure: (§1) FIG. 1. Operant training for oral ethanol across 30 minute test sessions in rats (n=8-10). Rats were trained on a continuous reinforcement (FR-1) schedule using a saccharine fading procedure and once stable levels of ethanol self-administration (10% w/v) were achieved, testing was initiated. Test 1 examined the effects of melanocortin 4 receptor agonist, Compound A, on maintenance levels of ethanol self-administration and Test 2 examined the effects of Compound A on the Alcohol Deprivation Effect (ADE).
FIG. 2. […] Operant training for oral ethanol in 30 minute test sessions in rats (n=8-10). Melanocortin 4 receptor agonist, Compound A, was administered at 0, 5, 10 or 20 mg/kg, po prior to testing. […] The symbol * indicates a significant difference between the vehicle and drug treated groups (p<0.05).
Animals: Male Wistar rats were used in all experiments. Body weight was 180-200 g at the start of the experiments. Rats were housed 2-3 per cage with food and water available ad libitum. Lights were on a 12-hour light/dark cycle, with lights on at 0600. All procedures met the guidelines of the National Institutes of Health Guide for the Care and Use of Laboratory Animals.
Operant Ethanol Self-Administration: Ethanol dilutions (5, 8 and 10% w/v) were prepared with 95% ethyl alcohol and tap water. Saccharin (Sigma Chemical Co., St. Louis, Mo.) was added to water or ethanol solutions to achieve a concentration of 0.2% w/v. Standard operant chambers (Med Associates, VT) housed in sound-attenuated chambers were used for ethanol self-administration. Syringe pumps dispensed ethanol and water into two stainless steel reservoirs mounted 4 cm above the floor of the chamber, centered between the two operant levers. The two retractable levers were located 4.5 cm to either side of the fluid reservoir. Fluid delivery and recording of operant responding were controlled by microcomputer. Rats were trained on a continuous reinforcement fixed-ratio 1 (FR1) schedule to self-administer oral alcohol (10% w/v, 0.1 ml per delivery) or water in 30 minute sessions. […]

Male Wistar rats [2] = test: Alcohol deprivation effect (ADE) after 10 day deprivation (animal model of alcohol relapse); assay type: in vivo, rat; conditions: for Alcohol deprivation effect (ethanol consumed after 10 day deprivation): po
Procedure: as §1
FIG. 3. […] Operant training for oral ethanol in 30 minute test sessions in rats (n=8-10). Following the maintenance self-administration test, rats were rebaselined prior to being confined to their home-cages for a 10 day deprivation period. Melanocortin 4 receptor agonist, Compound A was administered at 0, 5, 10 or 20 mg/kg, po prior to reintroduction to the test chambers following deprivation. […] The symbol * indicates a significant difference between baseline and drug treated groups (p<0.05). The symbol # indicates a significant difference between vehicle treated (ADE) and drug treated groups (p<0.05).
Method: Methods for this experiment were as described in EXAMPLE 3. Following the maintenance ethanol self-administration experiment, rats were re-baselined and once reliable levels of alcohol-reinforced self-administration were achieved, rats were confined to their home cages for a 10-day period. Prior to reintroduction to the test chamber, animals were injected with Compound (0, 5, 10 and 20 mg/kg).

hMC1bR = hMC1bR (Homo sapiens, UniProt Q01726); test: cAMP functional assay (agonist); assay type: cell-based; conditions: functional selectivity stated in text; 45 min
hMC1bR, sequence (Q01726 whole entry): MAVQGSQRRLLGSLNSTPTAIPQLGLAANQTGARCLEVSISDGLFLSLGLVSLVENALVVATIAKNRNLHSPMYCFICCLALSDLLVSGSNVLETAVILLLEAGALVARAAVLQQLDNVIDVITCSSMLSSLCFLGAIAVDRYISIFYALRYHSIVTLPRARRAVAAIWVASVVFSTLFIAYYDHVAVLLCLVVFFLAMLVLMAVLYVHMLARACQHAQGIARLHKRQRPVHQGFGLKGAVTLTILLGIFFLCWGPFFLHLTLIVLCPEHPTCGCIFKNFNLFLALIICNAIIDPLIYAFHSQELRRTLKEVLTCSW
Procedure: Cells (for example, CHO- or L-cells or other eukaryotic cells) expressing a human melanocortin receptor (see e.g. Yang-YK; Ollmann-MM; Wilson-BD; Dickinson-C; Yamada-T; Barsh-GS; Gantz-I; Mol-Endocrinol. 1997 March; 11(3): 274-80) were dissociated from tissue culture flasks by rinsing with Ca and Mg free phosphate buffered saline (14190-136, Life Technologies, Gaithersburg, Md.) and detached following 5 min incubation at 37° C. with enzyme free dissociation buffer (S-014-B, Specialty Media, Lavellette, N.J.). Cells were collected by centrifugation and resuspended in Earle's Balanced Salt Solution (14015-069, Life Technologies, Gaithersburg, Md.) with additions of 10 mM HEPES pH 7.5, 5 mM MgCl2, 1 mM glutamine and 1 mg/ml bovine serum albumin. Cells were counted and diluted to 1 to 5×10^6/mL. The phosphodiesterase inhibitor 3-isobutyl-1-methylxanthine was added to cells to 0.6 mM.
Agonist Assay: Test compounds were diluted in dimethylsulfoxide (DMSO) (10^−5 to 10^−10 M) and 0.1 volume of compound solution was added to 0.9 volumes of cell suspension; the final DMSO concentration was […]. After room temperature incubation for 45 min, cells were lysed by incubation at 100° C. for 5 min to release accumulated cAMP.
cAMP was measured in an aliquot of the cell lysate with the Amersham (Arlington Heights, Ill.) cAMP detection assay (RPA556). […]

AA rats = AA rats with established ethanol intake; Ploj et al. 2002; cited from earlier work

| Compound | Ethanol self-administration (10% w/v), 30 minute session (Male Wistar rats [1]; 20 mg/kg, po, vs vehicle/baseline, p<0.05) | Water consumption (Male Wistar rats [1]; maintenance test, any dose (5, 10, 20 mg/kg, po)) | Reduction of ethanol self administration (Male Wistar rats [1]; male Wistar rats, dose dependent, FIG. 2) | Alcohol deprivation effect (ethanol consumed after 10 day deprivation) (Male Wistar rats [2]; 5 mg/kg) | Alcohol deprivation effect (ethanol consumed after 10 day deprivation) (Male Wistar rats [2]; 10 mg/kg) | Alcohol deprivation effect (ethanol consumed after 10 day deprivation) (Male Wistar rats [2]; 20 mg/kg) | Water consumption (Male Wistar rats [2]; ADE test, any dose (5, 10, 20 mg/kg, po)) | Alcohol deprivation effect, overall statement (Male Wistar rats [2]; male Wistar rats, 10 day forced deprivation, FIG. 3) | EC50 for melanocortin 4 receptor lower than for melanocortin 1 receptor (hMC1bR) | Voluntary ethanol drinking (AA rats) |
| --- | --- | --- | --- | --- | --- | --- | --- | --- | --- | --- |
| CC[C@H](NC(C)=O)c1cc(Cl)ccc1C1CCN(C(=O)C2CN(C(C)(C)C)C[C@H]2c2ccc(F)cc2F)CC1 (stereo partly shown) [Compound A] | significant reductions from baseline levels; also recorded: significant reduction in ethanol self-administration | not significantly altered; also recorded: not significantly changed; also recorded: no significant effects on water consumption | approximately 50% | blocking the ADE; also recorded: significant attenuation of the alcohol deprivation effect | blocking the ADE; also recorded: significant attenuation of the alcohol deprivation effect | significant decrease below baseline levels of consumption; also recorded: further reduction below baseline levels | not significantly altered; also recorded: not significantly changed | reduced the increase in ethanol consumption | at least 120 fold | – |
| MTII | – | – | – | – | – | – | – | – | – | significantly reduces voluntary ethanol drinking |
